According to patent US20140066381A1, “NOVEL PEPTIDES THAT ARE MODULATORS OF THE PROTEIN TRF2 AND COMPOSITIONS CONTAINING SAME” (ISP INVESTMENTS INC., priority 2011, published 2014):
Ends that are not written are not given here.

How the values were obtained:
Assay type in all cases: cell-based
[1] = tested on: Human skin biopsies; assay: Human skin biopsies rendered senescent in vitro using methylglyoxal, H&E morphology
Procedure: Human skin biopsies are rendered artificially senescent in vitro, by means of a treatment with methylglyoxal (MGO). For this, des punch de 6-mm human skin punch biopsies are incubated at the air-liquid interface in a specific culture medium. They are then treated with 5 mM or 10 mM of MGO (Sigma) deposited at the surface of the biopsies and in the culture medium. The biopsies are then treated with: • condition 1: 20 μL of PBS 1×, or • condition 2: 20 μL of peptide SEQ ID NO: 4 at 1%, or • condition 3: 20 μL of peptide SEQ ID NO: 4 at 3%.
The biopsies are fixed and embedded in paraffin, and are then cut into 4-μm sections using a microtome. Hematoxyline/eosine (H&E) immunolabeling is performed on the sections previously cut and their morphology and structure are studied by microscopic observation (under a microscope Nikon Eclipse E600, objective 40×).

[2] = tested on: TRF2 protein; assay: TRF2 protein expression by Western Blot in human fibroblasts with or without TRF2 siRNA; conditions: 72 h
Procedure: To quantify the efficacy of a peptide compound according to the invention, on the overexpression of TRF2 in a human fibroblast population, the gene coding for TRF2 was “turned off” by using the siRNA technique.
Fibroblast cells are placed in culture in a 6-well plate until 60% confluence. The culture medium is renewed by adding the peptide SEQ ID NO: 2 at 1% under the conditions described below. Then, 100 μL of a mixture previously produced containing, in the end, 10 nM of TRF2 siRNA and the transfection agent are gently added, one drop at a time, and one well at a time. The cell culture plate is incubated at 37° C. and 5% in CO2 for 72 h. The culture medium is renewed every 2 days. Four conditions were established: • condition 1: control without siRNA and without active agent • condition 2: cells transfected with the siRNA, without active agent • condition 3: cells not transfected but treated with the active agent • condition 4: cells transfected with the siRNA and treated with the active agent
The quantification of the TRF2 expression is observed by the classic immunotransfer technique (Western Blot) performed with an anti-TRF2 antibody and according to a classic protocol. […]

[3] = tested on: vimentin; assay: Vimentin immunofluorescence detection in fibroblasts aged by replicative senescence; conditions: human fibroblasts, daily application of peptide at 1% or 3%, more than 17 passages, immunofluorescence at passages 6 and 17
Procedure: Human fibroblasts are placed in culture in a specific medium and kept in culture for a long treatment (for more than 17 passages), by means of a daily application of the peptide SEQ ID NO: 2 at a concentration of 1% or of 3%. A vimentin immunofluorescence detection experiment is performed on the cells in culture passages 6 and 17. The cells are then washed with PBS, fixed with 3.7% formaldehyde for 10 minutes, permeabilized by means of 0.2% Triton X-100 for 10 minutes (Fisher Chemical) and incubated with 1% BSA (Euromedex) for 15 minutes. An anti-vimentin antibody (Tebu Santa Cruz) is then added and incubated at a dilution of 1/200 for 2 h at room temperature. After washing with PBS, a Donkey anti-mouse IgG antibody, conjugated with a marker ALEXA FLUOR® 488, is added at a dilution of 1/1000 and incubated for one hour at room temperature. Finally, the sections are mounted with Fluoromount G (Electron Microscopy Science) and examined under a microscope (Nikon Eclipse 80i, enlargement 40×).

Row | Substance | damage inflicted on the structures of the biopsies vs control conditions ([1]; 6-mm human skin punch biopsies, 5 mM or 10 mM MGO, 20 μL of peptide at 1% or 3%, H&E) | protective effect of the peptide, 3% dose vs 1% dose ([1]; human skin biopsies treated with MGO, 20 μL of peptide at 1% vs 3%) | increase in the expression of the TRF2 protein with respect to the control ([2]; condition 3 vs condition 1: cells not transfected, peptide at 1%, Western Blot) [%] | reduction in TRF2 expression with respect to the control condition ([2]; condition 4 vs condition 1: cells transfected with 10 nM TRF2 siRNA and treated with peptide at 1%) | vimentin expression in aged fibroblasts, treated vs not treated [3]
1 | Ala-Met-Lys-Lys-Gln-Lys-Trp-NH2 (AMKKQKW-NH2) [SEQ ID NO: 4] | much less significant | dose-dependent | – | – | –
2 | Lys-Lys-Gln-Lys-Trp-NH2 (KKQKW-NH2) [SEQ ID NO: 2] | – | – | 17 | no more than 18% | express less vimentin
